Read-outs that look alike come from different tables or passages of the source.
Columns and labels:
pKa = type: physicochemical
Description: (§1) CH-j is pKa 5.3, log P 1.63 in Octanol/Water at 37° C. […] (BA-j 77m/ml). CH-j belongs to BCS II (low solubility, high permeability) and solubility presents the pH dependence. […] CH-j is a pH dependent fast release. […] It is speculated that CH-j has more appropriate log P and solubility with more likely entering tissue cells than others solubility acetyl Chrysin Mannich base derivatives.
(about 20 times BA-f 277 μg/ml) and 564 μg/ml in water at 37° C. (about 1000 times BA-f 0.53m/ml). CH-f is BCS I (high solubility and permeability) and solubility presents the pH dependence. It is speculated that CH-f has more appropriate log P and solubility with entering systemic (blood system and tissue cells) than others solubility acetyl Chrysin Mannich base derivatives.

CDK1 = CDK1 (Homo sapiens, UniProt P06493); test: CDK1 inhibition activity; type: biochemical
Chain of CDK1 (P06493 whole entry, species assumed): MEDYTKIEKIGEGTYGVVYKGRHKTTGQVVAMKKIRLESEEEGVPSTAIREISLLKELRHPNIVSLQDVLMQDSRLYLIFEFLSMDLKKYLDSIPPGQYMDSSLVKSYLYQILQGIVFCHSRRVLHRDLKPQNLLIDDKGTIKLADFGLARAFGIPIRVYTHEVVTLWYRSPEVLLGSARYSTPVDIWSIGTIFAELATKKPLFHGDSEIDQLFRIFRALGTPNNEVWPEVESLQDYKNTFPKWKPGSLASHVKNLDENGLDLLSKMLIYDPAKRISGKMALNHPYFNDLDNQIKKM
Chain of CDK1 (P14635 whole entry partner, species assumed): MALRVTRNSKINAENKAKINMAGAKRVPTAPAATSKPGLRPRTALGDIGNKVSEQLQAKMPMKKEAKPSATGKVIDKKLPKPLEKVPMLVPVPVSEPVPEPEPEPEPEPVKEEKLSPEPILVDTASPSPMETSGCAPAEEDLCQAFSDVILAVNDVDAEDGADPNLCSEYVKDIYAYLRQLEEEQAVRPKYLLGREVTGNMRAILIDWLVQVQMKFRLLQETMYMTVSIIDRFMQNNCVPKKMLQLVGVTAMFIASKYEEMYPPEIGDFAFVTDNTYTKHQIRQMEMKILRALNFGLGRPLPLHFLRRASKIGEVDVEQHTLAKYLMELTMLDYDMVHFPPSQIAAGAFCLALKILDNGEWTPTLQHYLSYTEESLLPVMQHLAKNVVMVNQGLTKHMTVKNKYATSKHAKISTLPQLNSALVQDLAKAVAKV

Dissolution in pH media = type: physicochemical; conditions: 37° C.
Description: as §1

[1] = Pharmacokinetics by oral in monkey (urine drug concentration-time curve); type: in vivo; conditions: for Tmax: po
Description: Chromatographic conditions and the system applies: with C18 chromatographic column (acid the tall secretory effect, 5 μm, 4.6*150 mm), in acetonitrile-methanol-water-mesylate (25:20:55:0.15) as mobile phase, detection UV 283 nm, the velocity 1 ml/min, and the sample volume 20 μl. The theoretical plate number is not less than 2000 according to CH-j peak.
Sample solution: after the macaques were drugged, the catheter was inserted. The urine by oral CH-j 5 mg/kg is collected, added the methanol at 1:4 (v:v), centrifuge and remove the liquid to measure. Control solution is CH-j methanol solution 5 μg/ml. The log P of CH-j is larger, the fat solubility strong, and absorption distribution in the body very rapid, the urine drug concentration-time curve consistent with the typical two-compartment model. Tmax1, 1.3 h, Cmax1 is […]. […] The apparent distribution volume (Vd) 42 L, mainly distributed in body fluid (BA-j Vd 12.6 L, mainly distributed in blood. See Fitoterapia, 2015, 107: 36-34)
FIG. 5: The concentration of urine drug concentration-time curve in monkey (n=6) by CH-j oral 5 mg/kg, X-coordinate is oral CH-j time (h) and Y-coordinate is the concentration of CH-j (μM).

Hep G2 [2] = test: Anti-cancer cells proliferation activity (MTT, 48 h); type: cell-based; conditions: Homo sapiens, HepG2
Excerpt: (§2) Anti-cancer cells proliferationactivity of in vitro CH-j and CH-f were shown in TABLE 2 for the results of the screening of 5 cancers cells.

MCF-7 = test: as above; type: cell-based; conditions: Homo sapiens, MCF7, MCF-7, MTT
Excerpt: as §2

PC-3 = test: as above; type: cell-based; conditions: Homo sapiens, PC-3, MTT
Excerpt: as §2

H-460 = test: as above; type: cell-based; conditions: Homo sapiens, NCI-H460, H-460, MTT
Excerpt: as §2

BGC-823 and Hep G2 = test: H2O2 level in cancer cells, PF1-H2O2 fluorescent probe; type: cell-based; conditions: BGC-823 and Hep G2, CH-j 5-10 μM
Description: The cells are cancer cells (MCF-7, GBC-823, Hep G2) and normal cells (Liver, COS-7, PBMCs). According to the literature [Scientific Reports, 2015, 5: 13626; Anti-cancer Agents in Medicinal Chemistry, 2016, 16: 914-924.], in vitro cultured cells was given to CH-j 25 μM for 3.5 h, added PF1-H2O2 selective fluorescence probe 10 μM for 0.5 h and detected the concentration of H2O2 in cells, and performed fluorescence imaging by results shown in FIG. 1.
FIG. 1-2: The effect of CH-j/BA-j to Hep G2 and BGC-382 in the levels of H2O2: in which the X-coordinate is the concentration of CH-j/BA-j concentration (μM), and Y-coordinate is the intracellular levels of H2O2 (μM) for 4 h with PF1-H2O2 10 μM by Fluorescence Microplater Reader (488 nm/525 nm).

Hep G2 [3] = test: NaOCl level, BODTPY-OCl fluorescent probe imaging; type: cell-based; conditions: CH-j 40 μM or HCPT 5 μM for 4 h
Description: In vitro cultured Hep G2 was given by BODTPY-OCl selective fluorescent probe 5 μM for 0.5 h, added CH-j 40 μM or HCPT 5 μM for 4 h, and performed fluorescence imaging.

BGC-823 = test: Anti-cancer cells proliferation activity (MTT, 48 h); type: cell-based; conditions: Homo sapiens, BGC-823, MTT
Description: as §2
FIG. 2: The initial screening results of the anticancer activity of BGC-823 (MTT, for 48 h), and X-coordinate is the drug concentration (MTT, for 48 h), and Y-coordinate the cell survival rate (%) in vitro.

[4] = Protein binding rate and reversible binding rate; type: in vitro ADME; conditions: plasma proteins
Description: (§3) The combination of drugs and plasma proteins is usually reversible, and the affinity strength is determined by the reversible binding rate of the drug-protein complex. Only free drugs can spread to the tissue through the lipid membrane. By modifying the structure of the drug, the effect of the drug on the target site can be improved by improving the reversible binding rate of the drug-protein complex.
(§4) The acidic part of polyphenol hydroxyl group is combined with lysine alkaline site in albumin structure. The protein binding rate and reversible binding rate of CH-j see TABLE 2.

plasma proteins = test: Protein binding rate and reversible binding rate; type: in vitro ADME
Description: as §3, §4

[5] = Pharmacokinetics by oral in monkey (urine drug concentration-time curve); type: in vivo; conditions: rhesus, monkey (n = 6), 3 mg/kg
[6] = oral 5 mg/kg, monkey, urine drug concentration
[7] = oral, monkey (n = 6), 3 mg/kg in Table 4, 5 mg/kg in text

- pKa (pKa): 5.3
- CDK1 inhibition, times stronger than BA-j (CDK1): about 2 times
- Dissolution (Dissolution in pH media; 0.05M NaAC-HAC buffered solution (pH4.5)): 90%
- Dissolution (Dissolution in pH media; 0.1M HCl (pH1.2)): 62%
- Dissolution (Dissolution in pH media; PBS (pH6.8)): < 1.0%
- Dissolution (Dissolution in pH media; water): < 0.1%
- Maximum drug concentration, times higher than Chrysin ([1]; monkey, in vivo): about 40 times
- Cmax1 [1, 6]: 26.4 µM
- Cmax2, redistributive period [1, 6]: 13.2 µM
- V d [1, 7]: 42 L
- t1/2β [1, 7]: 6.2 h
- Tmax ([1]; rhesus, monkey, urine, monkey (n = 6), 3 mg/kg in Table 4, 5 mg/kg in text, read-out: T max (Tmax1)): 1.3 h
- Tmax ([1]; rhesus, monkey, urine, monkey (n = 6), 3 mg/kg in Table 4, 5 mg/kg in text, read-out: T max, redistributive period (Tmax2)): 9 h
- concentration at 24 h ([1]; rhesus, urine, oral 5 mg/kg, monkey): < 3 µM
- Cmax ([1]; rhesus, urine, oral, monkey (n = 6), 3 mg/kg in Table 4, 5 mg/kg in text): 26.4 µM
- IC50 (Hep G2 [2]): 6 ± 1.5 µM
- IC50 (MCF-7): 5.7 ± 1.24 µM
- IC50 (PC-3): 6.2 ± 1.16 µM
- IC50 (H-460): 6.5 ± 1.13 µM
- IC50 (BGC-823): 6.3 ± 1.13 µM
- fraction unbound ([4]; average of 3 concentrations, read-out: Protein binding rate AV (converted)): 0.14
- fraction unbound at 12.5 μg/ml ([4]; drug concentration 12.5 μg/ml): 0.114
- fraction unbound at 25 μg/ml ([4]; drug concentration 25 μg/ml): 0.156
- fraction unbound at 50 μg/ml ([4]; drug concentration 50 μg/ml): 0.151
- Reversie binding rate AV (plasma proteins; average of 3 concentrations): 90.0%
- Reversie binding rate (plasma proteins; drug concentration 12.5 μg/ml): 90.3%
- Reversie binding rate (plasma proteins; drug concentration 25 μg/ml): 89.6%
- Reversie binding rate (plasma proteins; drug concentration 50 μg/ml): 90.1%
- AUC(0-inf) [5]: 20.4 µM·h
SMILES: CC(=O)c1c(O)c(CN2CCC(O)CC2)c2oc(-c3ccccc3)cc(=O)c2c1O [CH-j, 6-Acetyl-5,7-dihydroxy-8-(4-hydroxy-piperidin-1-ylmethyl)-2-phenyl-chromen-4-one]
- CDK1 50% inhibitory concentration (CDK1; read-out: inhibiting CDK1 CC50): 150 nM
- Amount of H2O2 released, fold (BGC-823 and Hep G2): about 4 times
- Maximum level of H2O2 in cells (BGC-823 and Hep G2; 4 h): 35 to 45 µM
- NaOCl, yellow green fluorescence (Hep G2 [3]): not present yellow green fluorescence

From patent US10471054B2, “CDK1 inhibitors of acetyl chrysin mannich base derivatives, synthesis and use thereof” (priority 2016, dated 2019)
